Laboratory results published in patent US4175125A, “Method for treating methicillin resistant staphylococcus aureus” (Eli Lilly and Company, priority 1978, dated 1979).
Values after ≈ are worked out from the molar mass of the structure shown. Read-outs that look alike come from different tables or passages of the source.

Tested on: Staphylococcus aureus cultures
Assay: Agar dilution MIC, Example 13 compound vs methicillin resistant Staphylococcus aureus
Type: cell-based
Conditions: read-out: MIC
Text: The table which follows gives the minimum inhibitory concentration (MIC) in micrograms of compound per milliliter of culture (μg/ml), in comparison with similar MIC values for the known antibiotics methicillin, cephalothin and cephaloridine against the same strains of bacteria.

[1] = culture 3055 (control), Trypticase Soy Agar with 4.5% NaCl added (5% NaCl)
[2] = culture 3055 (control), Trypticase Soy Agar, 0.5% NaCl
[3] = culture 3130, Trypticase Soy Agar with 4.5% NaCl added (5% NaCl)
[4] = culture 3130, Trypticase Soy Agar, 0.5% NaCl
[5] = culture 3131, Trypticase Soy Agar with 4.5% NaCl added (5% NaCl)
[6] = culture 3131, Trypticase Soy Agar, 0.5% NaCl
[7] = culture 3132, Trypticase Soy Agar with 4.5% NaCl added (5% NaCl)
[8] = culture 3132, Trypticase Soy Agar, 0.5% NaCl
[9] = culture 3133, Trypticase Soy Agar with 4.5% NaCl added (5% NaCl)
[10] = culture 3133, Trypticase Soy Agar, 0.5% NaCl
[11] = culture 3134, Trypticase Soy Agar with 4.5% NaCl added (5% NaCl)
[12] = culture 3134, Trypticase Soy Agar, 0.5% NaCl
[13] = culture 3135, Trypticase Soy Agar with 4.5% NaCl added (5% NaCl)
[14] = culture 3135, Trypticase Soy Agar, 0.5% NaCl
[15] = culture 3136, Trypticase Soy Agar with 4.5% NaCl added (5% NaCl)
[16] = culture 3136, Trypticase Soy Agar, 0.5% NaCl
[17] = culture 3137, Trypticase Soy Agar with 4.5% NaCl added (5% NaCl)
[18] = culture 3137, Trypticase Soy Agar, 0.5% NaCl
[19] = culture 3138, Trypticase Soy Agar with 4.5% NaCl added (5% NaCl)
[20] = culture 3138, Trypticase Soy Agar, 0.5% NaCl
[21] = culture 3139, Trypticase Soy Agar with 4.5% NaCl added (5% NaCl)
[22] = culture 3139, Trypticase Soy Agar, 0.5% NaCl
[23] = culture H232 (control), Trypticase Soy Agar with 4.5% NaCl added (5% NaCl)
[24] = culture H232 (control), Trypticase Soy Agar, 0.5% NaCl
[25] = culture Havarmak 1136501, Trypticase Soy Agar with 4.5% NaCl added (5% NaCl)
[26] = culture Havarmak 1136501, Trypticase Soy Agar, 0.5% NaCl
[27] = culture S 61, Trypticase Soy Agar with 4.5% NaCl added (5% NaCl)
[28] = culture S 61, Trypticase Soy Agar, 0.5% NaCl
[29] = culture Seattle 966, Trypticase Soy Agar with 4.5% NaCl added (5% NaCl)
[30] = culture Seattle 966, Trypticase Soy Agar, 0.5% NaCl

## O=C(Cc1cccs1)N[C@@H]1C(=O)N2C(C(=O)[O-])=C(C[n+]3ccccc3)CS[C@H]12 [Cephaloridine, cephaloridine, reference compound]
[1]
  MIC: 0.13 mg/L (≈ 0.313 µM)
[2]
  MIC: 0.03 mg/L (≈ 0.0722 µM)
[3]
  MIC: 1 mg/L (≈ 2.41 µM)
[4]
  MIC: 0.5 mg/L (≈ 1.2 µM)
[5]
  MIC: 1 mg/L (≈ 2.41 µM)
[6]
  MIC: 0.5 mg/L (≈ 1.2 µM)
[7]
  MIC: 0.5 mg/L (≈ 1.2 µM)
[8]
  MIC: 0.25 mg/L (≈ 0.602 µM)
[9]
  MIC: 0.25 mg/L (≈ 0.602 µM)
[10]
  MIC: 0.13 mg/L (≈ 0.313 µM)
[11]
  MIC: 1 mg/L (≈ 2.41 µM)
[12]
  MIC: 1 mg/L (≈ 2.41 µM)
[13]
  MIC: 4 mg/L (≈ 9.63 µM)
[14]
  MIC: 0.5 mg/L (≈ 1.2 µM)
[15]
  MIC: 4 mg/L (≈ 9.63 µM)
[16]
  MIC: 0.13 mg/L (≈ 0.313 µM)
[17]
  MIC: 4 mg/L (≈ 9.63 µM)
[18]
  MIC: 4 mg/L (≈ 9.63 µM)
[19]
  MIC: 4 mg/L (≈ 9.63 µM)
[20]
  MIC: 1 mg/L (≈ 2.41 µM)
[21]
  MIC: 0.13 mg/L (≈ 0.313 µM)
[22]
  MIC: 0.5 mg/L (≈ 1.2 µM)
[23]
  MIC: 0.13 mg/L (≈ 0.313 µM)
[24]
  MIC: 0.06 mg/L (≈ 0.144 µM)
[25]
  MIC: 8 mg/L (≈ 19.3 µM)
[26]
  MIC: 1 mg/L (≈ 2.41 µM)
[27]
  MIC: 1 mg/L (≈ 2.41 µM)
[28]
  MIC: 1 mg/L (≈ 2.41 µM)
[29]
  MIC: 0.13 mg/L (≈ 0.313 µM)
[30]
  MIC: 0.5 mg/L (≈ 1.2 µM)

## COc1cccc(OC)c1C(=O)N[C@@H]1C(=O)N2[C@@H]1SC(C)(C)[C@@H]2C(=O)O [Methicillin, methicillin]
[1]
  MIC: 1 mg/L (≈ 2.63 µM)
[2]
  MIC: 1 mg/L (≈ 2.63 µM)
[3]
  MIC: 16 mg/L (≈ 42.1 µM)
[4]
  MIC: 4 mg/L (≈ 10.5 µM)
[5]
  MIC: 32 mg/L (≈ 84.1 µM)
[6]
  MIC: 4 mg/L (≈ 10.5 µM)
[7]
  MIC: 8 mg/L (≈ 21 µM)
[8]
  MIC: 4 mg/L (≈ 10.5 µM)
[9]
  MIC: 2 mg/L (≈ 5.26 µM)
[10]
  MIC: 2 mg/L (≈ 5.26 µM)
[11]
  MIC: 32 mg/L (≈ 84.1 µM)
[12]
  MIC: 8 mg/L (≈ 21 µM)
[13]
  MIC: 32 mg/L (≈ 84.1 µM)
[14]
  MIC: 4 mg/L (≈ 10.5 µM)
[15]
  MIC: 64 mg/L (≈ 168 µM)
[16]
  MIC: 4 mg/L (≈ 10.5 µM)
[17]
  MIC: 64 mg/L (≈ 168 µM)
[18]
  MIC: 8 mg/L (≈ 21 µM)
[19]
  MIC: 32 mg/L (≈ 84.1 µM)
[20]
  MIC: 8 mg/L (≈ 21 µM)
[21]
  MIC: 1 mg/L (≈ 2.63 µM)
[22]
  MIC: 2 mg/L (≈ 5.26 µM)
[23]
  MIC: 1 mg/L (≈ 2.63 µM)
[24]
  MIC: 2 mg/L (≈ 5.26 µM)
[25]
  MIC: 64 mg/L (≈ 168 µM)
[26]
  MIC: 8 mg/L (≈ 21 µM)
[27]
  MIC: 32 mg/L (≈ 84.1 µM)
[28]
  MIC: 4 mg/L (≈ 10.5 µM)
[29]
  MIC: 16 mg/L (≈ 42.1 µM)
[30]
  MIC: 4 mg/L (≈ 10.5 µM)
